{
  "source": "patent US20250152559A1",
  "about": "“METHODS FOR TREATING MYC-AMPLIFIED CANCER” (The Governing Council of the University of Toronto, priority 2023, published 2025)",
  "key": {"[1]": {"tested_on": "SU_MB002", "assay": "PrestoBlue cell viability, 72-hour treatment, limiting dilution", "type": "cell-based, human", "details": "SU_MB002, media with uridine hydrochloride (100 μM)", "protocol": "SU_MB002, NSC194, NSC197 and NSC201FT, MBT375 and MED411FHTC were maintained in Neurocult Complete (NCC) media (Stem Cell Technologies; catalogue #05751). D425 and D458 were maintained in Dulbecco's […] (DMEM) containing 10% fetal bovine serum (FBS). HD-MB03 were maintained in NCC containing 10% FBS. All cell lines were conditioned in NCC for a minimum of 48 hours before experimentation. SU_MB002 and HD-MB03 G3MB-MYC PDOX were obtained from collaborators as kind gifts and are frequently passaged in vivo. SU_MB002, a treatment-refractory group 3 MB acquired at autopsy was received from Dr. Yoon-Jae Cho. Dr. Till Milde provided HD-MB03, a treatment-naïve group 3 MBs. ICB1299 group 4 MB cells were obtained as a gift from Silvia Marino's laboratory^62. MBT375 was established in-house from a surgical specimen of group 4 MB, which was engrafted in the cerebellum of mice for serial propagation. Nanostring genotyping was used to confirm group 4 medulloblastoma identity. MED411FHTC PDOX were procured from Dr. Olson's brain tumor research lab. D425 and D458 were obtained from the ATCC. All cell lines were fingerprint verified by short tandem repeat (STR) profiling. NSC194, NSC197 and NSC201FT were derived in-house from donor fetal brain tissues^63.\nFor assessment of viability, cells were seeded into 96-well plates at a density of 1,000 cells per well. Viability was measured by adding PrestoBlue™ diluted 1:10 (ThermoFisher Scientific; Catalogue #A13261) followed by a 4-hour incubation. Relative fluorescence intensity was determined via background correction. To assess tumorsphere forming capacity, cells were seeded at a low density (200 cells per well) and incubated for 3-5 days. Tumorspheres were manually counted thereafter."}, "[2]": {"tested_on": "SU_MB002 PDOX", "assay": "Orthotopic PDOX model, tumor burden and survival", "type": "in vivo, mice", "details": "orthotopic SU_MB002, BAY R1", "protocol": "The treatment-naïve, patient-derived cell line, HD-MB03, was orthotopically engrafted into immunocompromised mice. Four days later, tumors were readily detectible via bioluminescence imaging. Thereafter mice were randomized into three cohorts, which were treated with either the vehicle or one of two BAY treatment regimens (R1 and R2; FIG. 5B).\nPDOX were generated by engrafting 25,000 tumor cells (both SU_MB002 and HD-MB03 cell lines), suspended in 5 μL PBS, directly into the mouse cerebrum. Flank xenografts were generated by engrafting 2,000,000 tumor cells suspended in a 100 μL solution of PBS/Matrigel® (1:1 v/v). For preclinical studies, cells were engineered to express enhanced firefly luciferase. […] Flank tumors were isolated at matched time points and formalin fixed for 48 hours, paraffin embedded (FFPE) and sectioned for follow-up analysis. Tumor area was manually measured in H&E-stained sections of FFPE tissues using ImageJ.\nFor imaging via the in vivo imaging system (IVIS), mice were sedated with isoflurane gas and then administered luciferin substrate (150 mg/kg in PBS) via subcutaneous injection. After 10 minutes, bioluminescent signal (photons per second; p/s) was quantified using Living Image software."}},
  "data": [
    {"smiles": "CCn1c(CO)nn(-c2cc(O[C@@H](C)C(F)(F)F)c(C(=O)Nc3c(F)cccc3Cl)cc2F)c1=O", "note": "[BAY2402234]", "values": [
      {"measurement": "tumor cell proliferation and viability with uridine supplementation", "setting": "[1]", "result": "rescues"},
      {"measurement": "overall survival", "setting": "[2]", "result": "increased overall survival"},
      {"measurement": "tumor burden", "setting": "[2]", "result": "reduced tumor burden"}
    ]}
  ]
}
